Measurements published in article PMC9402538, “Rational design of a sensitivity-enhanced tracer for discovering efficient APC–Asef inhibitors” (Nature Communications, 2022).
Several values for one entry are separate records, joined by “and”; a condition that tells them apart may be missing. Equal entries are not always repeated. Entries after “also recorded” stand apart in the source; their conditions may differ. Where a SMILES comes first, the peptide text is derived from it. The star is where a group is joined. Benzoyl(4-OMe) = COc1ccc(C(=O)*)cc1

Assays:
SW480 cells [1] = test: xCELLigence RTCA-DP migration assay, SW480; type: cell-based; settings: for Cell index: 50 μM
Description: Real-time cell migration was evaluated using the xCELLigence RTCA-DP system (Roche). Briefly, SW480 cells were serum-starved for 8 h, digested, and resuspended in serum-free medium. The wells in the upper chamber of CIM plate 16 were preequilibrated with 30 μL serum-free medium for 1 h and filled with 100 μL of 4 × 10^4 serum-starved SW480 cells per well. The wells in the lower chamber of CIM plate 16 were filled with complete medium. […] Cell index values were detected every 15 min throughout the procedure, and the data were collected and analyzed with RTCA software (version 2.3).

[2] = molecular target: T1, APC–Asef PPI (FLAG-tagged APC (303–876), HA-tagged Asef (170–632)) (Homo sapiens, UniProt P25054); test: Exogenous Co-IP of APC–Asef in drug-treated HEK293T cell lysate; type: biochemical; settings: HEK293T cell lysate, 0.2, 1 and 5 μM, 2 h
T1 construct: FLAG-tagged APC (303–876) and hemagglutinin (HA)-tagged Asef (170–632) plasmids; expressed in transfected cells; host or cells: HEK293T (lysate treated with compound)
T1 sequence (P25054 303-876): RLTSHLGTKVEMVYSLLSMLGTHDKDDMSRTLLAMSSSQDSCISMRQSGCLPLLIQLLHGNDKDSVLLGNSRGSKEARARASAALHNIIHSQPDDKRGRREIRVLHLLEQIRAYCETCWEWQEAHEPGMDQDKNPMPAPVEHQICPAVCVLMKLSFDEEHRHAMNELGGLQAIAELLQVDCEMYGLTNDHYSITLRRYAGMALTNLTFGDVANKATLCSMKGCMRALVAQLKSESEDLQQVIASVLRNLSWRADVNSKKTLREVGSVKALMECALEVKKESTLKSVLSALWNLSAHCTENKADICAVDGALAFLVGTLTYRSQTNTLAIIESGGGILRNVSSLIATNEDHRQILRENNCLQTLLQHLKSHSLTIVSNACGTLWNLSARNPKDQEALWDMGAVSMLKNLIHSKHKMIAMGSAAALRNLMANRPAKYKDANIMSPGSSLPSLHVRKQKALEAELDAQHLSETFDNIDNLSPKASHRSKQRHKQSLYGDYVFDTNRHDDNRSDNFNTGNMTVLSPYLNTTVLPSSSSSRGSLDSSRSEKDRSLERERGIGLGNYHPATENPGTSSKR
Description: To investigate the effect of MAI-516 on the APC–Asef PPI, we first examined whether MAI-516 could perturb the APC–Asef PPI in cell lysates. HEK293T cells were transiently transfected with FLAG-tagged APC (303–876) and hemagglutinin (HA)-tagged Asef (170–632) plasmids. The cell lysates were harvested several hours after transfection and treated with different concentrations of MAI-203 and MAI-516 for 2 h; then, they were incubated with anti-FLAG® M2 affinity gel (Sigma; A2220) for 3 h at 4 °C.

APC W593A = molecular target: T2, APC W593A (Homo sapiens, UniProt P25054, W593A); test: ITC assay, APC W593A mutant; type: binding
T2 sequence (P25054 303-739 W593A): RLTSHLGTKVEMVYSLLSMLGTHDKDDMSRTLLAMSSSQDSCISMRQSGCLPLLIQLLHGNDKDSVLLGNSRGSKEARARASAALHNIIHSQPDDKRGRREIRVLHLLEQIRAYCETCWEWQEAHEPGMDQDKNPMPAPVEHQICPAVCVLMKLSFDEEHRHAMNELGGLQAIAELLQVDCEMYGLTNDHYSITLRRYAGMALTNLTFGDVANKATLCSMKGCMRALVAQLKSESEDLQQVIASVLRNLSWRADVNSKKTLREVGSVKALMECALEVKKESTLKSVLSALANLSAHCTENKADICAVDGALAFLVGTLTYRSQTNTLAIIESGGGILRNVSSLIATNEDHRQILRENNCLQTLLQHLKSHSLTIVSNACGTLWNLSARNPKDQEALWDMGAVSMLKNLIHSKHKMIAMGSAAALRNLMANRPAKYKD
Description: ITC experiments were performed using a MicroCal ITC200 calorimeter (Malvern Panalytical Ltd.). APC protein and peptide inhibitors were diluted with buffer containing 50 mM HEPES pH 7.5, 300 mM NaCl and 1 mM EDTA. The cells were loaded with APC proteins at 10–20 μM. All injections were performed using an initial injection of 0.2 μL followed by 19 injections of 2 μL at 100–200 μM. All measurements were carried out at 30 °C. The data were analyzed using a single-site binding model within MicroCal ITC200 analysis software to generate the stoichiometry (N), enthalpy changes (ΔH), entropy changes (ΔS), and the association constant (K) of binding. The changes in free energy (ΔG) were calculated (ΔG = ΔH-TΔS).

SW480 cells [3] = test: Transwell migration assay, SW480; type: cell-based
Description: Cells were serum-starved for 8 h and then digested and resuspended in serum-free medium. […] The lower chambers were filled with 600 μL of complete medium. […] After 48 h, the Transwell inserts were washed twice with 1× PBS. The cells in the upper chambers of the Transwell inserts were gently removed using cotton-tipped applicators. The cells on the lower surface of the membrane were fixed with methanol and then stained with crystal violet for 10 min. The Transwell inserts were washed with distilled water to remove the excess crystal violet and then dried. The stained cells from different areas were imaged using light microscopy and counted using ImageJ (NIH).

Compound: COc1ccc(C(=O)N[C@@H](C)C(=O)NCC(=O)N[C@@H](CCC(=O)O)C(=O)N[C@@H](CO)C(=O)N[C@@H](CC(C)C)C(=O)N[C@@H](Cc2ccc(O)cc2)C(=O)N[C@@H](CCC(=O)O)C(N)=O)cc1 [MAI-516] ({Benzoyl(4-OMe)}-AGESLYE-NH2)
- Cell index (SW480 cells [1]; Time 2.86 h): 0.0858 and 0.0963 and 0.0628 and 0.0638
- Cell index (SW480 cells [1]; Time 3.11 h): 0.0938 and 0.1001 and 0.0718 and 0.0644
- Cell index (SW480 cells [1]; Time 25.38 h): 0.4156 and 0.4495 and 0.4015 and 0.3302
- Cell index (SW480 cells [1]; Time 25.63 h): 0.4241 and 0.453 and 0.4081 and 0.333
- Cell index (SW480 cells [1]; Time 25.88 h): 0.4262 and 0.4606 and 0.4096 and 0.3376
- Cell index (SW480 cells [1]; Time 26.13 h): 0.4312 and 0.4671 and 0.4174 and 0.3414
- Cell index (SW480 cells [1]; Time 26.38 h): 0.4401 and 0.4711 and 0.4224 and 0.35
- Cell index (SW480 cells [1]; Time 26.63 h): 0.4427 and 0.4808 and 0.4256 and 0.3526
- Cell index (SW480 cells [1]; Time 26.88 h): 0.4494 and 0.4864 and 0.4295 and 0.3559
- Cell index (SW480 cells [1]; Time 27.13 h): 0.4537 and 0.4902 and 0.438 and 0.3614
- Cell index (SW480 cells [1]; Time 27.38 h): 0.4561 and 0.4966 and 0.4408 and 0.3637
- Cell index (SW480 cells [1]; Time 27.63 h): 0.459 and 0.5021 and 0.4433 and 0.3665
- Cell index (SW480 cells [1]; Time 27.88 h): 0.4663 and 0.508 and 0.4508 and 0.3739
- Cell index (SW480 cells [1]; Time 28.13 h): 0.4709 and 0.5146 and 0.4572 and 0.3773
- Cell index (SW480 cells [1]; Time 28.38 h): 0.4763 and 0.5221 and 0.4622 and 0.3808
- Cell index (SW480 cells [1]; Time 28.63 h): 0.4818 and 0.5253 and 0.4661 and 0.3892
- Cell index (SW480 cells [1]; Time 28.88 h): 0.484 and 0.5373 and 0.4696 and 0.3897
- Cell index (SW480 cells [1]; Time 29.13 h): 0.4908 and 0.5435 and 0.4752 and 0.3937
- Cell index (SW480 cells [1]; Time 29.38 h): 0.4994 and 0.5497 and 0.4817 and 0.3996
- Cell index (SW480 cells [1]; Time 29.63 h): 0.5038 and 0.5558 and 0.4857 and 0.4052
- Cell index (SW480 cells [1]; Time 29.88 h): 0.5108 and 0.5614 and 0.4912 and 0.4104
- Cell index (SW480 cells [1]; Time 30.13 h): 0.5142 and 0.5705 and 0.496 and 0.4144
- Cell index (SW480 cells [1]; Time 30.38 h): 0.5237 and 0.5775 and 0.5022 and 0.4227
- Cell index (SW480 cells [1]; Time 30.63 h): 0.5252 and 0.5853 and 0.505 and 0.4265
- Cell index (SW480 cells [1]; Time 30.88 h): 0.5376 and 0.5896 and 0.5138 and 0.4332
- cell migration (RTCA) (SW480 cells [1]; SW480, MAI-516): dose not inhibit the migration; also recorded: no apparent impact
- effect on APC–Asef PPI (Co-IP) [2]: dose-dependently attenuate the APC–Asef PPI
- reduction of binding affinity vs APC WT (APC W593A): approximately 100 fold
- -TΔS (APC W593A; 30 °C): 11.0 kJ/mol
- L/P ratio (APC W593A; 30 °C): 0.92
- ΔG (APC W593A; 30 °C): -37.1 kJ/mol
- ΔH (APC W593A; 30 °C): -48.1 kJ/mol
- Kd (APC W593A; ITC, 30 °C): 0.4 µM
- Relative migration ability (single replicates) (SW480 cells [3]; FigS10e, relative to DMSO): 1.11 and 1.06 and 0.96
- Relative migration ability, mean (SW480 cells [3]; FigS10e, relative to DMSO): 1.04
- cell migration (transwell) (SW480 cells [3]; SW480, MAI-516 50 μM, 48 h): dose not inhibit the migration; also recorded: no apparent impact
